These results are taken from US8809386B2, “Use of dynamin ring stabilizers” (Children's Medical Research Institute, priority 2009, dated 2014).

One test deals with T1, full length dynamin I (Ovis aries, UniProt A0ACI6NZN1).
T1 sequence (A0ACI6NZN1 1-864): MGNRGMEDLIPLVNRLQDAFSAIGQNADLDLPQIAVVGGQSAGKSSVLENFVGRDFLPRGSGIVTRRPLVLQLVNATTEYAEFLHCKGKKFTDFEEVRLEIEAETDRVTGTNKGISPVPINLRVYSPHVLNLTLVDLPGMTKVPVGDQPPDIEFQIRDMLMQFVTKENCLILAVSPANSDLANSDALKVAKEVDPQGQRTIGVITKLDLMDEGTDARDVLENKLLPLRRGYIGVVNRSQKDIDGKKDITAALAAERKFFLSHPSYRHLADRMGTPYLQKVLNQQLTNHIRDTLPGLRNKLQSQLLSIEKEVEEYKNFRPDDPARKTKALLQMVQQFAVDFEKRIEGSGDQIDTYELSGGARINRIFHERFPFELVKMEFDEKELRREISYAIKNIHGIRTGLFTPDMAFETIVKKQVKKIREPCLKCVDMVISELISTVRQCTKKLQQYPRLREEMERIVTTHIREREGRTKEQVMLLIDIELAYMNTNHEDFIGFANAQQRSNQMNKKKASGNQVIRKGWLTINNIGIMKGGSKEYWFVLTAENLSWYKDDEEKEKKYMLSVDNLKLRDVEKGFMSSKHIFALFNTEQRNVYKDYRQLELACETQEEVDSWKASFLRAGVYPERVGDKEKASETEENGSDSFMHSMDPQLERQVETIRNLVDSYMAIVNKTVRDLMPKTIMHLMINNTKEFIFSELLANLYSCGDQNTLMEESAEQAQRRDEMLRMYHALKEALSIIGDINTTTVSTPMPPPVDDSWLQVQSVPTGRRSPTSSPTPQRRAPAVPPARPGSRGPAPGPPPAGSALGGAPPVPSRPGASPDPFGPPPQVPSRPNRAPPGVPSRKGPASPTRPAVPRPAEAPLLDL
Nature of the test: Basal dynamin GTPase activity in the absence of PS liposomes or other template (ring stabilizer activity). It is filed as biochemical, sheep. Conditions: for stimulation of basal dynamin GTPase activity in the presence of Tween-80: dynI 200 nM, Tween-80 0.06%, Bis-T series 10 μM, all other compounds 30 μM, FIG. 11B. On the procedure: The compounds were present at the indicated concentrations and the concentration causing half-maximal stimulation is shown as the EC50.
Dynamin I (50 nM) GTPase stimulation was performed in the absence of the detergent Tween-80 (and in the absence of any known activators such as PS liposomes, nanotubes or microtubules). […] The GTPase activity of dynamin I (dynI; 200 nM) was measured in the absence of lipid activators (and in the presence of standard Tween-80 at 0.06%).
A compound (whether a dynamin inhibitor or not) can be identified as a dynamin ring stabilizer by assaying for its capacity to promote accumulation of dynamin rings and/or to inhibit disassembly of dynamin rings. […] GTPase activity of dynamin or dynamin rings can be determined by any conventionally known method (e.g., see Quan and Robinson. 2005). Such conditions include: (a) the absence of a helix assembly template such as liposomes, microtubules or lipid nanotubes, and (b) higher concentrations of dynamin than normally required for detecting template stimulated activity, typically 50-500 nM dynamin instead of 1-20 nM. Thus, ring stabilizer activity can be identified by the ability to stimulate the GTPase activity of full length dynamin in the absence of other stimulatory factors (such as PS liposomes, microtubules or nanotubes). Additional defining characteristics are available but are not essential if the first condition has been met. One such additional characteristic of ring stabilizer activity is that the stimulated activity occurs after a lag phase of a few minutes, rather than being an immediate activation in vitro. […] Such conditions typically mean utilising 50-200 nM dynamin in the absence of a template as distinct from higher concentrations where self-assembly is known to occur without the addition of a dynamin ring stabilizer.
Next, a time course experiment of Bis-T-23 stimulation of dynamin GTPase (FIG. 3) was conducted. […] The lag phase is thought to indicate the time required for dynamin to assemble as rings.

The next test deals with F-actin. Nature of the test: Actin co-sedimentation assay, dynamin-F-actin binding (Scatchard plot). Particulars: 5 μM F-actin, centrifugation at 100,000×g, FIG. 14. On the procedure: Increasing concentrations of dynamin (free) were added to 5 μM of F-actin. After centrifugation at 100,000×g proteins were separated on SDS-PAGE and bands were analyzed using densitometry.
To determine whether dynamin affects the actin cytoskeleton, the question of whether dynamin might directly bind filamentous actin (F-actin) was tested. In particular, an actin co-sedimentation assay was performed in which F-actin sediments under high-speed centrifugation. If dynamin interacts with F-actin it would be expected to co-sediment, and thus be present in the pellet fraction. In the presence of F-actin, but not in its absence, the majority of dynamin was found in the pellet (FIG. 12, lanes 2 and 14). […] The Kd of dynamin for actin was approximately 0.4 μM, which is similar to the affinities of other actin binding proteins such as α-actinin 4 for actin (Weins et al. 2005).
Next, the actin binding site was mapped to a region between amino acids 399 and 444 amino acids of dynamin II (dyn2) (FIG. 13). As predicted for an actin binding domain (Van et al. 1996), this region contains several positively charged amino acids conserved in all dynamin gene products from yeast to mammals. It is also alternatively spliced within different mammalian dynamin isoforms (called variant a and b in dynamins I and II) (see FIG. 13, SEQ ID No. 1-4). Site-directed mutagenesis was performed on conserved, charged residues within this actin binding domain to generate the putative ‘loss of function’ mutants, dynK/E (SEQ ID No. 9) and dynK/A (SEQ ID No. 10), and a putative ‘gain of function’ mutant, dynE/K (SEQ ID No. 11) (FIG. 13). […] All three mutant proteins had wild-type kinetic properties with respect to the basal and stimulated rate of GTP hydrolysis, indicating proper folding.

The subject of test [1] is truncated dynamin I construct known as GG2. Nature of the test: Basal GTPase activity of assembly-incompetent dynamin construct GG2. Format: biochemical. Conditions: FIG. 5. The source says:
FIG. 5 is a graph showing the basal GTPase activity of the truncated dynamin I construct known as GG2, containing only the GTPase domain linked to a small part of the GED domain (Chappie et al 2009). Unlike full length dynamin this construct is known to be unable to self-assemble or to form rings. Bis-T-22 and -23 and imminodyn-22 have no effect on the basal activity of this assembly-incompetent construct.
To verify that ring stabilizers require dynamin oligomerisation, a recombinant form of dynamin, called GG-2, which is dimeric yet is unable to self-associate into higher order oligomers (Chappie et al 2009) was tested. Ring stabilizers are unable to stimulate the basal activity of such constructs (FIG. 5).

On to `O=C(N/N=C/c1ccc(O)c(O)c1)c1cc2ccccc2cc1O` [Dynasore, 3-hydroxynaphthalene-2-carboxylic acid (3,4-dihydroxybenzylidene) hydrazide, reference compound], for which the “stimulation of basal dynamin GTPase activity in the absence of Tween-80” value at full length dynamin I (Dynamin I 50 nM, no Tween-80, no activators, FIG. 11A) is “stimulated basal dynamin GTPase activity to similar extents as Bis-T-23”. In addition, at full length dynamin I, the “stimulation of basal dynamin GTPase activity in the presence of Tween-80” value is “failed to stimulate basal GTPase activity”.

In the case of `O=C(N/N=C/c1cc(O)c(O)cc1O)c1cc2ccccc2cc1O` [Dyngo-4a], the “stimulation of basal dynamin GTPase activity in the presence of Tween-80” value at full length dynamin I was “effective”.

By Kd is commonly meant a measure of binding affinity in units of concentration. For the compound “dynK/E: ‘loss of function’ dynamin mutant in the actin binding domain (SEQ ID No. 9) (RTGLFTPDLAFEAIVEEQVVELEEPCLECVDLVIQELISTVRQCTS; listed as Mus musculus)”, at F-actin, binding was put at a Kd of 1700 nM.

With `N=c1oc2c(O)c(O)ccc2cc1C(=O)NCCCNC(=O)c1cc2ccc(O)c(O)c2oc1=N` [Iminodyn 22], the “effect on basal GTPase activity of GG2” value in test [1] is reported as “no effect”.

At F-actin, “dynE/K: ‘gain of function’ dynamin mutant in the actin binding domain (SEQ ID No. 11) (RTGLFTPDLAFEAIVKKQVVKLKKPCLKCVDLVIQKLISTVRQCTS; listed as Mus musculus)” gave a Kd of 30 nM.

For `N=c1oc2c(O)cccc2cc1C(=O)NCCCNC(=O)c1cc2cccc(O)c2oc1=N` [Iminodyn 20], the ring stabilizer activity result at full length dynamin I (absence of PS, Table 2) is “no ring stabilizer activity”.

In the case of “dynK/A: ‘loss of function’ dynamin mutant in the actin binding domain (SEQ ID No. 10) (RTGLFTPDLAFEAIVAAQVVALAEPCLACVDLVIQELISTVRQCTS; listed as Mus musculus)”, at F-actin, the dissociation constant (Kd) was 2800 nM.
